Results taken from patent US12630563B2, “Macrocyclic RIP2-kinase inhibitors” (Oncodesign S.A., priority 2020, dated 2026).

How the values were obtained:
[1] = target: T1, recombinant hRIPK2 protein (kinase domain aa 1-299-His-tagged) (Homo sapiens, UniProt O43353); test: RIPK2 AlphaLISA assay (displacement of bead-bound CZC-8004 from hRIPK2); type: binding; conditions: recombinant hRIPK2 kinase domain 10 nM, 2 h at 23° C.
T1 construct: kinase domain aa 1-299-His-tagged; purchased Life Technologies PR7829A
T1 sequence (O43353 1-299): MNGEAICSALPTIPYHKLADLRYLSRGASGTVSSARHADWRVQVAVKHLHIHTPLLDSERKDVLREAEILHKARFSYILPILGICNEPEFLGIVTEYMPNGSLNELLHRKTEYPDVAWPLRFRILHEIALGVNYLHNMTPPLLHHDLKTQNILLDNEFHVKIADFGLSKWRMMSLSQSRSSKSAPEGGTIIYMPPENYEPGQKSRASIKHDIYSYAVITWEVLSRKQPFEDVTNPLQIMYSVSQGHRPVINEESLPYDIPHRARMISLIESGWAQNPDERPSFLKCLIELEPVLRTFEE
In short: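 His-tagged kinase domain (10 nM, as diluted) was mixed with compound (0.8% DMSO), acceptor beads bearing the probe CZC-8004 and Ni2+ donor beads. After 2 h at 23 °C, AlphaLISA signal was read. Loss of signal reflects displacement of the probe from RIPK2.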

[2] = Human Clint, microsomal metabolic stability (Assay B); type: in vitro ADME; conditions: pooled liver microsomes 0.5 mg/mL, 0.5 μM compound, NADPH
Protocol: Human Clint protocol: Pooled liver microsomes (Sekisui Xenotech) were diluted at 0.5 mg/mL in 50 mM phosphate buffer, pH 7.4 then pre-incubated with 0.5 μM […] for 7 min at 37° C. The reactions were initiated by adding prewarmed cofactor (0.44 mM NADPH). Aliquots of samples were taken at 0, 5, 10, 20 and 45 min and the reactions stopped by addition of cold acetonitrile containing an internal standard. Samples were centrifuged at 3000 g for 10 min at 4° C. and then supernatants were analyzed by LC/MS/MS for the amount of parent compound remaining.

[3] = target: T2, hERG potassium channel (Homo sapiens, UniProt Q12809); test: hERG q-patch assay (Assay C, Sophion Qube automated electrophysiology); type: cell-based; conditions: read-out: Assay C: hERG q-patch inhibition IC50
T2 construct: host or cells: HEK (hERG-HEK stably transfected cell line)
T2 sequence (Q12809 whole entry): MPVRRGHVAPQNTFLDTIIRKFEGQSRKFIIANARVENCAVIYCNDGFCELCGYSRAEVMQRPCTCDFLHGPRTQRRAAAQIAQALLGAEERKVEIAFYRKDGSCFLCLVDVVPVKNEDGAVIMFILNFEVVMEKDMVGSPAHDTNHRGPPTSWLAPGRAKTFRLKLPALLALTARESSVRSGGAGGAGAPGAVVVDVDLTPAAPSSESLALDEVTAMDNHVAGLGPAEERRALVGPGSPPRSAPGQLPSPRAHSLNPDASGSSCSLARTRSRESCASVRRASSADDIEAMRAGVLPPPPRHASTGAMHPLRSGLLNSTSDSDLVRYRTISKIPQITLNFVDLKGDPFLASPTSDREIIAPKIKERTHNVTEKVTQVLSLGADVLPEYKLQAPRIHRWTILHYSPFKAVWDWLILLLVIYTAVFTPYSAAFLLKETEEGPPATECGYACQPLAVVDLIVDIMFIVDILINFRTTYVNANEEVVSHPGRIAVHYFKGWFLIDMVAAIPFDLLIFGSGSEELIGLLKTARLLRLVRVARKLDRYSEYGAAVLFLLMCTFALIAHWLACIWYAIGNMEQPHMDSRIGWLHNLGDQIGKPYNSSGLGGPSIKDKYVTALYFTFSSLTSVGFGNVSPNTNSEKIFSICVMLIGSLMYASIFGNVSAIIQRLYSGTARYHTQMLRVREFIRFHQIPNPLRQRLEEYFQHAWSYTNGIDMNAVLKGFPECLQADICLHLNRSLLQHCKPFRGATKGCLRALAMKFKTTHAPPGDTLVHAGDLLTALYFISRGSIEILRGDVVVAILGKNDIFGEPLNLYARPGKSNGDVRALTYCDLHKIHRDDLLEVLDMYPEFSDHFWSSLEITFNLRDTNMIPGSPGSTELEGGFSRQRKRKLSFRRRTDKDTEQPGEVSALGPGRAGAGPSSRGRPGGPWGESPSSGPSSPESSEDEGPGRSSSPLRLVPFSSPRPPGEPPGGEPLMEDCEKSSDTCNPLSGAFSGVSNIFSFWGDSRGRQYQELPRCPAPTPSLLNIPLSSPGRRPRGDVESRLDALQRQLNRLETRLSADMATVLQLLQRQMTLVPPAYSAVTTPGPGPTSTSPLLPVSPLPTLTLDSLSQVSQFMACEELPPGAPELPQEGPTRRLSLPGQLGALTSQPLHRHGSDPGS
Protocol: hERG q-patch assay protocol: The potential for test compound to inhibit the hERG potassium channel was determined using the Charles River ChanTest® hERG-HEK stably transfected cell line on the Sophion Qube automated electrophysiology platform. The assay was performed at room temperature and recordings of the hERG tail current from a population of cells were made using multi-hole QChips.

[4] = Human protein binding free fraction (Assay A, RED plate equilibrium dialysis); type: in vitro ADME; conditions: plasma, read-out: Assay A: Human protein binding free fraction (F %)
Protocol: Human protein binding protocol: Compound was added to plasma or brain homogenate and incubated at 2 μM at 37° C. in the RED plate (Thermo n° 96009, cut-off 8000 Da) against PBS buffer. After 4 h, aliquots of plasma and buffer side were transferred to a well containing acetonitrile with an internal standard. After protein precipitation, samples were centrifuged and supernatant was injected in LC/MS/MS. Standards were prepared in the same matrix and treated as samples.
A fraction unbound (fuplasma) was determined for each plasma sample as follows: […]

| Compound | IC50 [1] [nM] | Assay B: Human Clint (hCl) [2] | IC50 [3] [nM] | fraction unbound at 4 h, 2 μM [4] |
| --- | --- | --- | --- | --- |
| COc1cn2ncc3c2nc1OC[C@@H]1C[C@@H](OC)C(=O)N1CCNc1cc(F)cc-3c1 [Example 1, (12R,14S)-4-fluoro-12,18-dimethoxy-16-oxa-7,10,20,21,24-pentaazapentacyclo[15.5.2.1^2,6.0^1°,^14.0^2°,^23]pentacosa-1(23),2(25),3,5,17(24),18,21-heptaen-11-one] | < 10 | +++ (+++ indicates hCl equal or below 5 ug/min/mg prot) | > 10000 |  |
| CO[C@@H]1C[C@H]2COc3ccn4ncc(c4n3)-c3cc(F)cc(c3)NCCN2C1=O [Example 3, (12R,14S)-4-fluoro-12-methoxy-16-oxa-7,10,20,21,24-pentaazapentacyclo[15.5.2.1^2,6.0^10,^14.0^20,^23] pentacosa-1(23),2(25),3,5,17(24),18,21-heptaen-11-one] | < 10 | ++ (++ indicates hCl between 6-18 ug/min/mg prot) | > 10000 | > 0.01 |
| CO[C@@H]1C[C@H]2COc3ccn4ncc(c4n3)-c3cc(cc(C(C)=O)c3)NCCN2C1=O [Example 54, (12R,14S)-4-acetyl-12-methoxy-16-oxa-7,10,20,21,24-pentaazapentacyclo[15.5.2.1^2,6.0^1°,^14.0^2°,^23]pentacosa-1(23),2,4,6(25),17(24),18,21-heptaen-11-one] | < 10 | ++ (++ indicates hCl between 6-18 ug/min/mg prot) | > 10000 | > 0.01 |
| CO[C@@H]1C[C@H]2COc3ccn4ncc(c4n3)-c3cc(cc(C(=O)N(C)OC)c3)NCCN2C1=O [Example 55, (12R,14S)—N,12-dimethoxy-N-methyl-11-oxo-16-oxa-7,10,20,21,24-pentaazapentacyclo[15.5.2.1^2,6.0^1°,^14.0^2°,^23]pentacosa-1(23),2,4,6(25),17(24),18,21-heptaene-4-carboxamide] | < 10 | +++ (+++ indicates hCl equal or below 5 ug/min/mg prot) | > 10000 |  |
| CO[C@@H]1C[C@H]2COc3nc4c(cnn4cc3-c3cnn(C)c3)-c3cc(F)cc(c3)NCCN2C1=O [Example 67, (12R,14S)-4-fluoro-12-methoxy-18-(1-methyl-1H-pyrazol-4-yl)-16-oxa-7,10,20,21,24-pentaazapentacyclo[15.5.2.1^2,6.0^1°,^14.0^2°,^23]pentacosa-1(23),2(25),3,5,17(24), 18,21-heptaen-11-one] | < 10 | +++ (+++ indicates hCl equal or below 5 ug/min/mg prot) | > 10000 |  |
| O=C1[C@H](OCCO)C[C@H]2COc3ccn4ncc(c4n3)-c3cc(F)cc(c3)NCCN12 [Example 79, (12R,14S)-4-fluoro-12-(2-hydroxyethoxy)-16-oxa-7,10,20,21,24-pentaazapentacyclo[15.5.2.1^2,6.0^1°,^14.0^2°,^23]pentacosa-1(23),2(25),3,5,17(24),18,21-heptaen-11-one] | < 10 | +++ (+++ indicates hCl equal or below 5 ug/min/mg prot) | 1000 to 10000 | > 0.01 |
| COCCO[C@@H]1C[C@H]2COc3nc4c(cnn4cc3OC)-c3cc(C#N)cc(c3)NCCN2C1=O [Example 145, (12R,14S)-18-methoxy-12-(2-methoxyethoxy)-11-oxo-16-oxa-7,10,20,21,24-pentaazapentacyclo[15.5.2.1^2,6.0^10,^14.0^20,^23]pentacosa-1(23),2,4,6(25),17(24),18,21-heptaene-4-carbonitrile] | < 10 |  |  |  |
| C#Cc1cc2cc(c1)-c1cnn3cc(OC)c(nc13)OC[C@@H]1C[C@@H](OCCOC)C(=O)N1CCN2 [Example 146, (12R,14S)-4-ethynyl-18-methoxy-12-(2-methoxyethoxy)-16-oxa-7,10,20,21,24-pentaazapentacyclo[15.5.2.1^2,6.0^1°,^14.0^2°,^23]pentacosa-1(23),2,4,6(25),17(24),18,21-heptaen-11-one] | < 10 |  |  |  |
| COc1cc2cc(c1)-c1cnn3cc(OC)c(nc13)OC[C@@H]1C[C@@H](OC(C)C)C(=O)N1CCN2 [Example 147, (12R,14S)-4,18-dimethoxy-12-(propan-2-yloxy)-16-oxa-7,10,20,21,24-pentaazapentacyclo[15.5.2. 1^2,6.0^10,^14.0^20,^23]pentacosa-1(23),2,4,6(25),17(24),18, 21-heptaen-11-one] | < 10 |  |  |  |
